Active and inactive are the calls of the source. The rule behind the calls is not given here.
How the values were obtained:
[1] = tested on: Cydia pomonella; assay: Inhibition of fruit-infesting behavior of Cydia pomonella (codling moth) neonates infested in apple fruit plugs assessed as feeding deterrence index at 0.1 mg/mL; type: functional
[2] = tested on: Cydia pomonella; assay: Inhibition of fruit-infesting behavior of Cydia pomonella (codling moth) neonates infested in apple fruit plugs assessed as feeding deterrence index at 1 mg/mL; type: functional
[3] = tested on: Cydia pomonella; assay: Inhibition of fruit-infesting behavior of Cydia pomonella (codling moth) neonates infested in apple fruit plugs assessed as feeding deterrence index at 10 mg/mL; type: functional
[4] = tested on: Cydia pomonella; assay: Inhibition of fruit-infesting behavior of Cydia pomonella (codling moth) neonates infested in apple fruit plugs assessed as feeding deterrence index at 30 mg/mL; type: functional, organism-based
[5] = tested on: Cydia pomonella; assay: Inhibition of fruit-infesting behavior of Cydia pomonella (codling moth) neonates infested in apple fruit plugs assessed as feeding deterrence index at 0.5 mg/mL; type: functional
[6] = tested on: Cydia pomonella; assay: Inhibition of fruit-infesting behavior of Cydia pomonella (codling moth) neonates infested in apple fruit plugs assessed as feeding deterrence index at 2 mg/mL; type: functional
[7] = tested on: Cydia pomonella; assay: Inhibition of fruit-infesting behavior of Cydia pomonella (codling moth) neonates infested in apple fruit plugs assessed as feeding deterrence index at 0.2 mg/mL; type: functional
[8] = tested on: Cydia pomonella; assay: Inhibition of fruit-infesting behavior of Cydia pomonella (codling moth) neonates infested in apple fruit plugs assessed as feeding deterrence index at 5 mg/mL; type: functional
[9] = tested on: Cydia pomonella; assay: Inhibition of fruit-infesting behavior of Cydia pomonella (codling moth) neonates infested in apple fruit plugs assessed as feeding deterrence index at 0.01 mg/mL; type: functional
[10] = tested on: Cydia pomonella; assay: Inhibition of fruit-infesting behavior of Cydia pomonella (codling moth) neonates infested in apple fruit plugs assessed as feeding deterrence index at 0.001 mg/mL; type: functional
[11] = tested on: Cydia pomonella; assay: Inhibition of fruit-infesting behavior of Cydia pomonella (codling moth) neonates infested in apple fruit plugs assessed as feeding deterrence index at 3 mg/mL; type: functional
[12] = tested on: Cydia pomonella; assay: Inhibition of fruit-infesting behavior of Cydia pomonella (codling moth) neonates infested in apple fruit plugs assessed as feeding deterrence index at 60 mg/mL; type: functional, organism-based

Compound: O=c1c(O)c(-c2ccc(O)c(O)c2)oc2cc(O)cc(O)c12
- FDI [1]: inactive
- FDI [2]: inactive
- FDI [3]: inactive
- FDI [4]: inactive

Compound: CCCCCCCCCCCCCCCc1cccc(O)c1C(=O)O [ANACARDIC ACID]
- FDI [5]: 26.7%
- FDI [6]: 73.7%
- FDI [2]: 91.7%
- FDI [7]: 25%
- FDI [8]: 81.8%

Compound: CC(C)(C)[C@]1(O)CC2OC(=O)CC23C(=O)OC2OC(=O)[C@H](O)C231 (some centres undefined) [BILOBALIDE]
- FDI [1]: 56.5%
- FDI [2]: 50%
- FDI [9]: 23.5%
- FDI [3]: 75%
- FDI [10]: 0%

Compound: CCCCCC/C=C\CCCCCCCc1cccc(O)c1C(=O)O [GINGKOLIC ACID]
- FDI [5]: 18.8%
- FDI [2]: 41.7%
- FDI [3]: 63.2%
- FDI [8]: 50%

Compound: CCCCCCCCCCCCCc1cccc(O)c1C(=O)O [GINKGOLIC ACID 13:0]
- FDI [5]: 23.5%
- FDI [2]: 26.1%
- FDI [3]: 42.1%
- FDI [8]: 0%

Compound: CCCCCC/C=C\CCCCCCCCCc1cccc(O)c1C(=O)O [GINKGOLIC ACID 17:1]
- FDI [5]: 37.5%
- FDI [2]: 5.3%
- FDI [3]: 60%
- FDI [8]: 54.5%

Compound: C[C@@H]1C(=O)O[C@H]2C[C@@]34[C@H]5C[C@@H](C(C)(C)C)[C@]36[C@@H](OC(=O)[C@@H]6O)O[C@@]4(C(=O)O5)[C@]21O [GINKGOLIDE A]
- FDI [1]: 7.69%
- FDI [2]: 40.4%
- FDI [3]: 38.5%

Compound: C[C@@H]1C(=O)O[C@H]2[C@H](O)[C@@]34O[C@@H]5OC(=O)[C@H](O)[C@@]56[C@H](C(C)(C)C)[C@H](O)C(OC3=O)[C@]64[C@@]12O (some centres undefined) [GINKGOLIDE C]
- FDI [1]: 11.8%
- FDI [2]: 20%
- FDI [3]: 10%

Compound: C[C@@H]1C(=O)O[C@H]2[C@H](O)[C@@]34[C@H]5C[C@@H](C(C)(C)C)[C@]36[C@@H](OC(=O)[C@@H]6O)O[C@@]4(C(=O)O5)[C@@]12O [GINKOLIDE B]
- FDI [1]: 12.5%
- FDI [2]: 26.1%
- FDI [3]: 76%

Compound: COc1cc(-c2oc3cc(O)cc(O)c3c(=O)c2O)ccc1O [ISORHAMNETIN]
- FDI [11]: 32.1%
- FDI [1]: 10.3%
- FDI [2]: inactive
- FDI [9]: 21.7%

Compound: O=c1c(O)c(-c2ccc(O)cc2)oc2cc(O)cc(O)c12 [KAEMPFEROL]
- FDI [1]: inactive
- FDI [2]: 25%
- FDI [3]: inactive
- FDI [12]: inactive
- FDI [4]: inactive

— ChEMBL document CHEMBL3046245, “Effects of Ginkgo biloba constituents on fruit-infesting behavior of codling moth (Cydia pomonella) in apples” (2011)
